Test results reported in US20250144054A1, “SMALL MOLECULE STAT3 INHIBITOR FOR TREATING TRIPLE NEGATIVE BREAST CANCER” (UNIVERSITY OF MARYLAND, BALTIMORE, priority 2022, published 2025).

Tests used:
SUM159 cells = test: Colony formation assay, SUM159 cells; assay type: cell-based, human; conditions: SUM159, 24 hours treatment, 7 days drug-free, vs DMSO
Procedure: (§1) Colony formation assay. MDA-MB-231, SUM159, and 4T1 cells were seeded in a 6-well plate at a density of 1000 cells/well and treated with DMSO or LLL12B for 24 hours, and then cultured in a drug-free culture medium for 7 days. Colonies were fixed with methanol for 30 min and stained with 1% crystal violet in 25% methanol for 2 hours at room temperature.

caspase-3/7 [1] = test: Caspase-3/7 activity assay, 4T1 cells; assay type: cell-based, murine; conditions: 4T1, 5 hours, vs DMSO
Procedure: (§2) Caspase-3/7 activity assay. The Caspase-3/7 Fluorescence Assay Kit (Cayman, Ann Arbor, MI, USA) was used to detect the activation of caspase-3/7 and the assay was performed according to the manufacturer's instructions. Briefly, MDA-MB-231, SUM159, and 4T1 cells were seeded in a 96-well plate in triplicate. After overnight incubation, cells were treated with either LLL12B or DMSO for 5 hours. Cells were lysed and processed to measure caspase-3/7 activity and the fluorescence intensity was read (excitation=485 nm; emission=535 nm).

4T1 cells [2] = test: Colony formation assay, 4T1 cells; assay type: cell-based, murine; conditions: 4T1, 24 hours treatment, 7 days drug-free, vs DMSO
Procedure: as §1

4T1 cells [3] = test: Wound healing assay, 4T1 cells; assay type: cell-based, murine; conditions: 4T1, vs DMSO
Procedure: Wound healing assay. MDA-MB-231, SUM159, and 4T1 cells were seeded in a 6-well plate and cultured until fully confluent. A straight scratch crossing the monolayer was created using a 200 μl pipette tip and images of scratched areas were taken. Next, cells were treated with DMSO or LLL12B. Then, images were taken until the scratch of DMSO-treated cells was closed and the relative migration (%) was calculated.

ERK = test: EGF induced ERK phosphorylation, Western blot, T47D cells; assay type: cell-based, human; conditions: pretreated 2 hours, 50 ng/ml EGF 30 minutes
Procedure: (§3) (A) The chemical structures of LLL12B and LLL12. The carbamate ester bond of LLL12B is hydrolytically cleaved by the tumor-associated plasmin to release LLL12. (B) SUM159 cells were seeded in a 6-well plate and treated with LLL12B for 8 hours. Cells were stained with Phospho-Stat3 (Tyr705) and DAPI (indicated by arrows). Green: P-STAT3 (Y705); Blue: DAPI. T47D (C) and MDA-MB-231 (D) breast cancer cells were pretreated with DMSO or LLL12B in a serum-free medium for 2 hours and stimulated with 50 ng/ml of IL-6, IFN-γ, or EGF for additional 30 minutes. Cells were collected and analyzed by Western blot. GAPDH served as a protein loading control.
(§4) Western blot. Cells were collected and total protein was extracted using cell lysis buffer (Cell Signaling Technology, Danvers, MA, USA). Protein concentration was determined using the Pierce BCA Protein Assay Kit (Thermo Fisher Scientific, Waltham, MA, USA) according to the manufacturer's instructions. Equal amounts of protein were separated by 10% SDS-PAGE gels and transferred to PVDF membranes. Membranes were blocked in 5% non-fat milk at room temperature and probed with specific antibodies P-STAT3 (Y705), STAT3, Cyclin D1, Cleaved Caspase-3, P-STAT1 (Y701), STAT1, P-ERK, ERK or GAPDH (1:1000, Cell Signaling Technology, Danvers, MA, USA) at 4° C. overnight. […]

caspase-3/7 [4] = test: Caspase-3/7 activity assay, MDA-MB-231 cells; assay type: cell-based, human; conditions: MDA-MB-231, 5 hours, vs DMSO
Procedure: as §2

SUM149 xenograft = SUM149 xenograft model in vivo
Text: Next, the efficacy of LLL12B and Talazoparib was examined in the SUM149 xenograft model in vivo. […] V: Vehicle; L: LLL12B; T: Talazoparib. Western blot analysis further confirmed the inhibition of p-STAT3 in LLL12B and combination treated tumors (FIG. 16D).

STAT3 [5] = test: IL-6 induced STAT3 phosphorylation, Western blot, MDA-MB-231 cells; assay type: cell-based, human; conditions: pretreated 2 hours serum-free, 50 ng/ml IL-6 30 minutes
Procedure: as §3, §4

MDA-MB-231 cells = test: Colony formation assay, MDA-MB-231 cells; assay type: cell-based, human; conditions: MDA-MB-231, 24 hours treatment, 7 days drug-free, vs DMSO
Procedure: as §1

4T1 cells [6] = test: Annexin V and PI flow cytometry, 4T1 cells; assay type: cell-based, murine; conditions: 4T1, 8-12 hours, vs DMSO
Procedure: Flow cytometry analysis. Flow cytometry was performed to detect cell apoptosis. The APC Annexin V Apoptosis Detection Kit (Biolegend, San Diego, CA, USA) was used for Annexin V staining. Cells were seeded in a 35 mm culture dish at a density of 1×10^5 cells/dish. After overnight incubation, cells were treated with DMSO or LLL12B for 8-12 hours. Cells were harvested and stained with Annexin V-APC and propidium iodide (PI) according to the manufacturer's instructions. After staining, cells were counted using a FACSCanto II flow cytometer (BD Biosciences, San Jose, CA, USA).

caspase-3/7 [7] = test: Caspase-3/7 activity assay, SUM159 cells; assay type: cell-based, human; conditions: SUM159, 5 hours, vs DMSO
Procedure: as §2

STAT3 [8] = target: STAT3 (Homo sapiens, UniProt P40763); conditions: refs [25,27,28]; cited from earlier work
STAT3 [9] = test: IL-6 induced STAT3 phosphorylation, Western blot, T47D cells; assay type: cell-based, human; conditions: pretreated 2 hours serum-free, 50 ng/ml IL-6 30 minutes
Procedure: as §3, §4

Chain of STAT3 (Homo sapiens, UniProt P40763) (P40763 whole entry, species assumed): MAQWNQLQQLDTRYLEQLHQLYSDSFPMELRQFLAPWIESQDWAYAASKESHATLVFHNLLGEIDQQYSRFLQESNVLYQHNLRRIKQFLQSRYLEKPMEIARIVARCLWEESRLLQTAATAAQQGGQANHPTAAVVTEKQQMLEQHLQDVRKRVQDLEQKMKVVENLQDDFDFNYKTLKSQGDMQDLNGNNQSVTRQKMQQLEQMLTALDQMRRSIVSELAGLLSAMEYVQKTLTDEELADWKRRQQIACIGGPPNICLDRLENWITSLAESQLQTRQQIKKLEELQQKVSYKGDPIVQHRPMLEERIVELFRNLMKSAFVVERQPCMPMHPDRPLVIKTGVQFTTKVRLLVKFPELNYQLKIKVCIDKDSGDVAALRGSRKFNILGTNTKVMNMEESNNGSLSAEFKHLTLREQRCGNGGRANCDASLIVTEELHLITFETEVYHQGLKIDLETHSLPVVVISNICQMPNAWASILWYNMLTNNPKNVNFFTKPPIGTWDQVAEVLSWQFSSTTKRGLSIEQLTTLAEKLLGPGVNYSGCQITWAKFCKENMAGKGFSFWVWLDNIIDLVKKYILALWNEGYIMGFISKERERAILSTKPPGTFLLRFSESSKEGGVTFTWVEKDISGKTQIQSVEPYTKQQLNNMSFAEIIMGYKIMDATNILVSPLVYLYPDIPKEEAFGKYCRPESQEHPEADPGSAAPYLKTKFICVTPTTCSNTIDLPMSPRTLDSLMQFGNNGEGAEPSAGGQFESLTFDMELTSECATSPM

CN(C)C(=O)Oc1cccc2c1C(=O)c1cccc(S(N)(=O)=O)c1C2=O [LLL12B]
colony numbers (SUM159 cells): significant reduction
activation of caspase-3/7 (caspase-3/7 [1]): induced the activation
colony numbers (4T1 cells [2]): significant reduction
wound closure (cell migration) (4T1 cells [3]): effectively inhibited
induction of P-ERK stimulated by EGF (ERK): did not inhibit
activation of caspase-3/7 (caspase-3/7 [4]): induced the activation
p-STAT3 in tumors, Western blot (SUM149 xenograft): inhibition
IL-6 induced phosphorylation of STAT3 (Y705) (STAT3 [5]): inhibited
colony numbers (MDA-MB-231 cells): significant reduction
percentage of apoptotic cells (4T1 cells [6]): significantly increased
activation of caspase-3/7 (caspase-3/7 [7]): induced the activation
binding to the pTyr705 binding site of STAT3 (STAT3 [8]): binds directly
IL-6 induced phosphorylation of STAT3 (Y705) (STAT3 [9]): inhibited
